Laboratory results from patent US9963445B2, “Chemical compounds” (SYNGENTA PARTICIPATIONS AG, priority 2013, dated 2018).

Tests used:
Format in all cases: in vivo
[1] = tested on: Amaranthus retroflexus; test: Post-emergence herbicidal activity, glasshouse pot test; design: key: 0 = no damage to plant, 5 = total damage to plant; settings: Application post-emergence, rate 1000 g/ha, evaluated after 13 days
Procedure, shortened: (§1)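 Test solution: technical active ingredient in acetone/water (50:50) containing 0.5% Tween 20, applied as an aqueous spray to 8-day-old plants. Evaluation at 13 days, 0–5 damage scale.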

[2] = tested on: zea mays; test: as above; design: key: 0 = no damage to plant, 5 = total damage to plant; settings: Application post-emergence, rate 1000 g/ha, evaluated after 13 days
Procedure, shortened: as §1

[3] = tested on: Alopecurus myosuroides; test: as above; design: key: 0 = no damage to plant, 5 = total damage to plant; settings: Application post-emergence, rate 1000 g/ha, evaluated after 13 days
Procedure, shortened: as §1

[4] = tested on: Setaria faberi; test: as above; design: key: 0 = no damage to plant, 5 = total damage to plant; settings: Application post-emergence, rate 1000 g/ha, evaluated after 13 days
Procedure, shortened: as §1

[5] = tested on: Echinochloa crus-galli; test: as above; design: key: 0 = no damage to plant, 5 = total damage to plant; settings: Application post-emergence, rate 1000 g/ha, evaluated after 13 days
Procedure, shortened: as §1

[6] = tested on: Abutilon theophrasti; test: as above; design: key: 0 = no damage to plant, 5 = total damage to plant; settings: Application post-emergence, rate 1000 g/ha, evaluated after 13 days
Procedure, shortened: as §1

[7] = tested on: Amaranthus retroflexus; test: Pre-emergence herbicidal activity, glasshouse pot test; settings: pre-emergence spray, rate 1000 g/ha, evaluated after 13 days, scale 0-5
Procedure, shortened: (§2)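 Pots of seeded soil were sprayed one day after sowing (pre-emergence) with compound formulated in acetone/water 50:50 with 0.5% Tween 20. Plants were grown in a glasshouse at 24/16 °C day/night, 14 h light, 65% humidity. Damage was scored after 13 days on a 0–5 scale (5 = total damage).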

[8] = tested on: zea mays; test: as above; settings: pre-emergence spray, rate 1000 g/ha, evaluated after 13 days, scale 0-5
Procedure, shortened: as §2

[9] = tested on: Alopecurus myosuroides; test: as above; settings: pre-emergence spray, rate 1000 g/ha, evaluated after 13 days, scale 0-5
Procedure, shortened: as §2

[10] = tested on: Setaria faberi; test: as above; settings: pre-emergence spray, rate 1000 g/ha, evaluated after 13 days, scale 0-5
Procedure, shortened: as §2

[11] = tested on: Echinochloa crus-galli; test: as above; settings: pre-emergence spray, rate 1000 g/ha, evaluated after 13 days, scale 0-5
Procedure, shortened: as §2

[12] = tested on: Abutilon theophrasti; test: as above; settings: pre-emergence spray, rate 1000 g/ha, evaluated after 13 days, scale 0-5
Procedure, shortened: as §2

Structure (SMILES) | AMARE herbicidal damage score [1] | ZEAMX herbicidal damage score [2] | ALOMY herbicidal damage score [3] | SETFA herbicidal damage score [4] | ECHCG herbicidal damage score [5] | ABUTH herbicidal damage score [6] | AMARE damage score, application pre-emergence [7] | ZEAMX damage score, application pre-emergence [8] | ALOMY damage score, application pre-emergence [9] | SETFA damage score, application pre-emergence [10] | ECHCG damage score, application pre-emergence [11] | ABUTH damage score, application pre-emergence [12]
COC1=C(C)C(O)N(c2ccc(C(=O)NC(C)(C)C)nn2)C1=O (stereo not drawn) [BI6] | 5 | 4 | 4 | 5 | 5 | 5 | 5 | 2 | 4 | 5 | 4 | 5
COC1=C(C)C(O)N(c2cc(C(C)(C)C)c(N3CC(F)(F)C3)nn2)C1=O (stereo not drawn) [BI31] | 5 | 4 | 5 | 5 | 5 | 5 | 5 | 3 | 4 | 5 | 4 | 5
CC1=C(Cl)C(=O)N(c2cc3c(cn2)CCCC3)C1O (stereo not drawn) [AF89] | 5 | 1 | 3 | 5 | 5 | 5 | 2 | 1 | 2 | 5 | 3 | 1
COc1ccc(-c2ccc(N3C(=O)C(Cl)=C(C)C3O)nc2)cc1 (stereo not drawn) [AF59] | 3 | 0 | 1 | 2 | 1 | 4 | 3 | 0 | 0 | 0 | 1 | 2
COC1=C(C)C(O)N(c2cc(C(C)C)c(Cl)nn2)C1=O (stereo not drawn) [BI2] | 5 | 3 | 5 | 5 | 5 | 5 | 4 | 3 | 4 | 5 | 5 | 4
CC(=O)OC1C(C)=C(Cl)C(=O)N1c1cc(C(F)(F)F)ccn1 (stereo not drawn) [AF10] | 5 | 4 | 5 | 5 | 5 | 5 | 5 | 0 | 3 | 4 | 5 | 5
CC1=C(Cl)C(=O)N(c2cc(C(C)(F)F)ccn2)C1O (stereo not drawn) [AF32] | 5 | 4 | 4 | 5 | 5 | 5 | 5 | 2 | 3 | 5 | 4 | 5
CC1=C(Cl)C(=O)N(c2nccc(C(F)(F)F)c2F)C1O (stereo not drawn) [AF5] | 5 | 4 | 5 | 5 | 5 | 5 | 5 | 4 | 4 | 4 | 4 | 4
CC1=C(Cl)C(=O)N(c2cc(C(C)(F)F)ncn2)C1O (stereo not drawn) [CF15] | 5 | 4 | 4 | 5 | 5 | 5 | 5 | 2 | 3 | 5 | 5 | 5
CCCC1=C(Cl)C(=O)N(c2cc(C(F)(F)F)ccn2)C1O (stereo not drawn) [AF81] | 5 | 2 | 4 | 4 | 5 | 5 | 5 | 2 | 3 | 2 | 5 | 4
COC1=C(C)C(O)N(c2cc(C(F)(F)F)c(Cl)nn2)C1=O (stereo not drawn) [BI9] | 5 | 4 | 5 | 5 | 5 | 5 | 5 | 2 | 4 | 2 | 4 | 1
CCc1cc(N2C(=O)C(Cl)=C(C)C2O)nnc1Cl (stereo not drawn) [BF13] | 3 | 1 | 4 | 5 | 5 | 3 | 4 | 1 | 2 | 5 | 4 | 2
